{"source": "patent US20180153872A1", "about": "“HETEROARYL CARBONITRILES FOR THE TREATMENT OF DISEASE” (OPKO Health, Inc., priority 2015, published 2018)", "key": {"[1]": {"tested_on": "cough induced by mechanical stimulation of the intrathoracic trachea", "test": "Mechanically induced cough in anesthetized dogs", "assay_type": "in vivo", "conditions": "anesthetized dog, 0.3 mg/kg oral", "experimental": "(§1) The antitussive activity of SCH 900978 was also evaluated against cough induced by mechanical stimulation of the intrathoracic trachea in anesthetized dogs. Cough was measured in each stimulation trial by the cough frequency (number of coughs) and cough amplitude (cm H2O increase in expiratory pressure). […] Plasma concentration of SCH900978 at 2, 6 and 25 hours after administration of the 0.3 mg/kg dose to dogs were 201, 151 and 102 ng/mL (373, 280 and 189 nM), respectively."}, "[2]": {"test": "Metabolic pathways in the mammals tested", "assay_type": "in vivo", "source_text": "(§2) Urinary excretion was also substantial (approximately 20%)."}, "[3]": {"biological_target": "T1, NK3 receptor (Homo sapiens, UniProt P29371)", "T1 sequence (P29371 1-465)": "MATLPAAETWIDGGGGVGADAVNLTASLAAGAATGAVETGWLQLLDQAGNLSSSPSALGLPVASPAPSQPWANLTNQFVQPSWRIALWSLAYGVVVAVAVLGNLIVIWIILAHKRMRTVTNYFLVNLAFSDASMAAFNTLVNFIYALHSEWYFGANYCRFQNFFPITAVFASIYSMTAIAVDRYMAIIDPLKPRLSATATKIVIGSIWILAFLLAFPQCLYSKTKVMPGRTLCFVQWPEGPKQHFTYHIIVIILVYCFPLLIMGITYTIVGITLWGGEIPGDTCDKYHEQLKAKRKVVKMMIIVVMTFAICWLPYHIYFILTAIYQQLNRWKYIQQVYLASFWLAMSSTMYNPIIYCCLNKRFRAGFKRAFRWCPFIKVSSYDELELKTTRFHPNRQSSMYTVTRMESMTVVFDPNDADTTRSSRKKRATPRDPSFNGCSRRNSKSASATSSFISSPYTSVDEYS", "test": "NK3 receptor affinity", "assay_type": "binding", "source_text": "(§3) A compound of formula I (also designated SCH 900978) is a potent, selective, competitive neurokinin-1 (NK-1) receptor antagonist that is effective as an oral administered drug for the treatment of cough and meets this unmet medical need. In addition, this drug is effective for the treatment of overactive bladder (OAB) and other selected indications including major depression and alcohol dependency. […] The present invention comprises a compound of formula I having an effective dose for 90% inhibition [ED90]=0.2 mg/kg as determined in an in vivo pharmacodynamic model of NK1 receptor activity (gerbil foot thumping).\n(§4) SCH900978 was also tested for NK2 and NK3 receptor activity and in 106 other receptors, transporters, enzymes and ion channels and had greater than 1000 fold lower affinity for these than for the NK1 receptor."}, "[4]": {"biological_target": "NK1 receptors (Mus musculus, UniProt P30548)", "sequence (P30548 whole entry)": "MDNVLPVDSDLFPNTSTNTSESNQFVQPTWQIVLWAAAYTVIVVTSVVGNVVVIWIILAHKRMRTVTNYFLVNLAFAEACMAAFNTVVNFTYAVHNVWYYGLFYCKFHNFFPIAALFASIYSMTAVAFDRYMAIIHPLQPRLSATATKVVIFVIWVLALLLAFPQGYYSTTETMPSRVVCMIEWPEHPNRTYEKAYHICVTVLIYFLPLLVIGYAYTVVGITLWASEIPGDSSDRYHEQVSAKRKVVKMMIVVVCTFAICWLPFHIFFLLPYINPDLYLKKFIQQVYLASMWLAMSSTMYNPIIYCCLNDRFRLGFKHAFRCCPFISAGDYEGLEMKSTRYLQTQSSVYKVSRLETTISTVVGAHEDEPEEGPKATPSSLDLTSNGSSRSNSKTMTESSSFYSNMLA", "test": "NK1 receptor radioligand binding, mouse", "conditions": "no unit, Ki in nM", "experimental": "as §4"}, "[5]": {"test": "Plasma concentration after oral dose in dogs", "assay_type": "in vivo", "conditions": "dog, 0.3 mg/kg oral", "experimental": "as §1"}, "[6]": {"biological_target": "NK1 receptor (Homo sapiens, UniProt P25103)", "sequence (P25103 whole entry)": "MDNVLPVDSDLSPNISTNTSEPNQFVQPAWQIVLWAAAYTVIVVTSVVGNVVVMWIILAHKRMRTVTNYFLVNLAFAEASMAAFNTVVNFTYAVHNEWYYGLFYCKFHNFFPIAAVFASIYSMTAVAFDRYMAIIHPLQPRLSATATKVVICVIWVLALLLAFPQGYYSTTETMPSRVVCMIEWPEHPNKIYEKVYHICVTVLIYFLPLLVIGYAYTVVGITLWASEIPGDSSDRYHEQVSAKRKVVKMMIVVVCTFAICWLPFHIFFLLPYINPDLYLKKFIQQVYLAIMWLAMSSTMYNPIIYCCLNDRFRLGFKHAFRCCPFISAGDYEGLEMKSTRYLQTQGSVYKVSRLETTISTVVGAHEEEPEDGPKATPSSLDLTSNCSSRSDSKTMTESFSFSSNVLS", "test": "Block of GR-73632-mediated calcium efflux in cells expressing the human NK1 receptor (Schild analysis)", "assay_type": "cell-based", "conditions": "GR-73632-stimulated calcium efflux, read-out: Kb, equilibrium dissociation constant determined by Schild analysis", "source_text": "as §3, §4"}, "[7]": {"biological_target": "NK1 receptor (Meriones unguiculatus, UniProt Q5DUB1)", "sequence (Q5DUB1 whole entry)": "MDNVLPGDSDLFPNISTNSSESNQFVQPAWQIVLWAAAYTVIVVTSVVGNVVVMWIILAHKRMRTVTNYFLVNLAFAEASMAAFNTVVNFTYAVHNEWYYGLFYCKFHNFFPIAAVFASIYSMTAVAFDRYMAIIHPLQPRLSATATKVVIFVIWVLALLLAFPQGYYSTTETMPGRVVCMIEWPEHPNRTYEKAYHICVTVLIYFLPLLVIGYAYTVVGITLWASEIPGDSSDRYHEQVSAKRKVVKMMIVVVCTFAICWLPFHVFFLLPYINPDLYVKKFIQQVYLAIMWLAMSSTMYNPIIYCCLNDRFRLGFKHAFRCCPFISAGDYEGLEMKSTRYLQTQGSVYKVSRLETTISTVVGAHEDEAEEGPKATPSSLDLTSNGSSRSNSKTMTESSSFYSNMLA", "test": "NK1 receptor radioligand binding, gerbil", "conditions": "no unit, Ki in nM", "experimental": "as §4"}, "[8]": {"tested_on": "capsaicin-induced cough", "test": "Capsaicin-induced cough in conscious guinea pigs", "assay_type": "in vivo", "conditions": "guinea pig", "experimental": "Inhalation of the irritant capsaicin induces coughing in both animals and humans, in part by releasing substance P from unmyelinated sensory C fibers in the lung. When administered orally to conscious guinea pigs six hours prior to inhalation of aerosolized capsaicin, SCH900978 attenuated capsaicin-induced cough in a dose-dependent manner (ED90=0.04 mg/kg) (FIG. 2)."}, "[9]": {"test": "Brain penetration, guinea pigs", "assay_type": "in vivo, guinea pig", "experimental": "as §2\n(§5) The extent of brain penetration by SCH 900978 was evaluated after oral administration of SCH 900978 amorphous hydrochloride to female gerbils (0.1 mg/kg), male Sprague Dawley rats (5 mg/kg), and male guinea pigs (0.3 mg/kg)."}, "[10]": {"biological_target": "hERG gene current (Homo sapiens, UniProt Q12809)", "sequence (Q12809 whole entry)": "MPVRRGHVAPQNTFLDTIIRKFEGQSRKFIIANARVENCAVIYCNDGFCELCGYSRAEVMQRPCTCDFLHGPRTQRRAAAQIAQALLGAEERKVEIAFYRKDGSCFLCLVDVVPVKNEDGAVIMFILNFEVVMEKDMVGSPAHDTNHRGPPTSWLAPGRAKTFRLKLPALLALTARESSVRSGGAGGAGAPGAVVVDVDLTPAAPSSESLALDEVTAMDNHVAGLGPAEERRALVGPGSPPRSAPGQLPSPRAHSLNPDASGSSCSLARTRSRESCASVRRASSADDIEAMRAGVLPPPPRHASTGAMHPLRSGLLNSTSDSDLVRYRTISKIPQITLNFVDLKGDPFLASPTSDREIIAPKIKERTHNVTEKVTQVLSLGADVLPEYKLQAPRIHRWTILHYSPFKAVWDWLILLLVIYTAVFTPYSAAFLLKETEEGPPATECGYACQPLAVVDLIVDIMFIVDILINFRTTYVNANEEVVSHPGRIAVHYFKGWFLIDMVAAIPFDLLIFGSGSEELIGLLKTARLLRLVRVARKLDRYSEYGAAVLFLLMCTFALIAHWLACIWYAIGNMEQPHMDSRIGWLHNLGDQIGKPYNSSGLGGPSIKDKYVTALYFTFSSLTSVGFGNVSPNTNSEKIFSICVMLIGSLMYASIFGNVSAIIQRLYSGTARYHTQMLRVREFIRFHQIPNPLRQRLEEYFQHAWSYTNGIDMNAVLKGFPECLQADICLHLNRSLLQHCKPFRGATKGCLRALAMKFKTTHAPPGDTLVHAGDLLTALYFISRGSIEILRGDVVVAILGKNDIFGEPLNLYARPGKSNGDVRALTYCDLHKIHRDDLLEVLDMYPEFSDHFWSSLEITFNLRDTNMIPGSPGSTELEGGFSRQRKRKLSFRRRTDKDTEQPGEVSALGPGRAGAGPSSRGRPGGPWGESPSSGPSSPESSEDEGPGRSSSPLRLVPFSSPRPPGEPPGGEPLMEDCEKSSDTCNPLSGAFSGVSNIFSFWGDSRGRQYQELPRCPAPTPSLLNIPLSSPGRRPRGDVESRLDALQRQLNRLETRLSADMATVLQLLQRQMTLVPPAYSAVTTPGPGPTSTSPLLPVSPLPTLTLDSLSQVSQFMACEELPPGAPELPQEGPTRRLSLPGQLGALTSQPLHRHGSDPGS", "test": "hERG current inhibition", "assay_type": "cell-based", "experimental": "A series of in vitro and in vivo studies examined the effects of SCH900978 on cardiovascular, respiratory and CNS functions. No adverse effects were observed. The NOAEL was ≥25 mg/kg in male rats, ≥12.5 mg/kg in female rats and ≥10 mg/kg in male cynomolgus monkeys; each dose was the highest dose tested."}, "[11]": {"biological_target": "T2, NK2 receptor (Homo sapiens, UniProt P21452)", "T2 sequence (P21452 1-398)": "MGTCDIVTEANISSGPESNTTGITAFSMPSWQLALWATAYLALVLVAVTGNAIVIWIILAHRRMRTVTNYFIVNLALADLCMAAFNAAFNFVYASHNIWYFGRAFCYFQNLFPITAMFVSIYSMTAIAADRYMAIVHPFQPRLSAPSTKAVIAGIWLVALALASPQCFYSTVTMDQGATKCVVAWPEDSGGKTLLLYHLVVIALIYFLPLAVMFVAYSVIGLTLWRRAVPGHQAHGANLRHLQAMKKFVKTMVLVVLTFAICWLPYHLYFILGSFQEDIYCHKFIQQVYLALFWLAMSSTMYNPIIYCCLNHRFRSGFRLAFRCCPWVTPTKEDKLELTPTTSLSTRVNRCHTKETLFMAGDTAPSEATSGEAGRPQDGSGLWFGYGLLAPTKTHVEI", "test": "NK2 receptor affinity", "assay_type": "binding", "source_text": "as §3, §4"}, "[12]": {"test": "Brain penetration, rats", "assay_type": "in vivo, rat", "experimental": "as §2, §5"}, "[13]": {"biological_target": "NK1 receptors (Rattus norvegicus, UniProt P14600)", "sequence (P14600 whole entry)": "as the sequence (P30548 whole entry) above, with V7M, T15I, I266V, D367E counted along it", "test": "NK1 receptor radioligand binding, rat", "conditions": "no unit, Ki in nM", "experimental": "as §4"}, "[14]": {"tested_on": "106 other receptors, transporters, enzymes and ion channels", "test": "Panel of 106 other receptors, transporters, enzymes and ion channels", "assay_type": "binding", "experimental": "as §4"}, "[15]": {"test": "Pharmacokinetics/toxicokinetics and excretion in monkeys", "assay_type": "in vivo, monkey", "conditions": "for plasma concentration-time profile: single oral dose", "source_text": "as §2"}}, "note": "Where “and” joins values, the source holds several entries; their conditions need not be identical. Identical values can stand only once."}
{"compound": "C[C@@H](OC[C@@]1(c2ccccc2)CC[C@](C#N)(n2cn[nH]c2=O)CN1)c1cc(C(F)(F)F)cc(C(F)(F)F)c1", "note": "[Compound 42, (3 S,6S)-6-({(1R)-1-[3,5-bis(trifluoromethyl)phenyl]ethoxy}methyl)-3-(5-oxo-1,5dihydro-4H-1,2,4-triazol-4-yl)-6-phenylpiperidine-3-carbonitrile]", "values": [{"measurement": "duration of significantly reduced cough amplitude", "setting": "[1]", "result": "up to 24 hours"}, {"measurement": "duration of significantly reduced cough frequency", "setting": "[1]", "result": "up to 24 hours"}, {"measurement": "major metabolic pathways", "setting": "[2]", "result": "oxidation and glucuronidation"}, {"measurement": "Ki", "setting": "[3]", "result": "> 1000", "unit": "nM"}, {"measurement": "fold lower affinity than for the NK1 receptor", "setting": "[3]; NK3 vs NK1", "result": "greater than 1000 fold"}, {"measurement": "Ki", "setting": "[4]", "result": 0.76, "unit": "nM"}, {"measurement": "concentration at 2 h", "setting": "[5]; 2 hours", "result": "201 ng/mL and 373 nM"}, {"measurement": "concentration at 6 h", "setting": "[5]; 6 hours", "result": "151 ng/mL and 280 nM"}, {"measurement": "concentration at 25 h", "setting": "[5]; 25 hours", "result": "102 ng/mL and 189 nM"}, {"measurement": "Kb", "setting": "[6]", "result": 0.17, "unit": "nM"}, {"measurement": "Ki", "setting": "[7]", "result": 0.2, "unit": "nM"}, {"measurement": "maximal inhibition of capsaicin-induced cough", "setting": "[8]", "result": "comparable to that produced by the standard antitussive agents"}, {"measurement": "ED90, capsaicin-induced cough", "setting": "[8]; oral, six hours prior to aerosolized capsaicin", "result": 0.04, "unit": "mg/kg"}, {"measurement": "crossing of the blood brain barrier", "setting": "[9]", "result": "readily crossed the blood brain barrier"}, {"measurement": "IC50", "setting": "[10]", "result": 860, "unit": "nM"}, {"measurement": "Ki", "setting": "[11]", "result": "> 1000", "unit": "nM"}, {"measurement": "fold lower affinity than for the NK1 receptor", "setting": "[11]; NK2 vs NK1", "result": "greater than 1000 fold"}, {"measurement": "crossing of the blood brain barrier", "setting": "[12]", "result": "readily crossed the blood brain barrier"}, {"measurement": "Ki", "setting": "[13]", "result": 4.62, "unit": "nM"}, {"measurement": "affinity for a battery of other receptors, transporters, enzymes or ion channels", "setting": "[14]", "result": "does not have significant affinity"}, {"measurement": "fold lower affinity than for the NK1 receptor", "setting": "[14]; 106 other receptors, transporters, enzymes and ion channels vs NK1", "result": "greater than 1000 fold"}, {"measurement": "exposure, effect of sex", "setting": "[15]; monkeys", "result": "independent of sex"}, {"measurement": "systemic exposure versus dose, single dose", "setting": "[15]; monkeys", "result": "increased with increasing dose"}, {"measurement": "plasma concentrations over 24 hours after 29th dose versus first dose", "setting": "[15]; monkeys 0.5 to 30 mg/kg", "result": "greater"}, {"measurement": "exposure versus dose", "setting": "[15]; monkeys, once daily oral doses for one month", "result": "generally increased as the dose increased"}, {"measurement": "major elimination pathway", "setting": "[15]; monkeys, oral administration", "result": "excretion into the feces"}, {"measurement": "plasma concentration-time profile", "setting": "[15]; monkeys, listed as SCH 900978", "result": "extended absorption of SCH900978 with a long t1/2"}, {"measurement": "plasma concentration-time profile", "setting": "[15]; monkeys, listed as SCH900978", "result": "extended absorption of the drug and a long apparent terminal elimination phase half-life"}]}
